Patent publication US20120157452A1, “1H-PYRAZOLO[3,4-B] PYRIDINE COMPOUNDS FOR INHIBITING RAF KINASE” (GENENTECH, INC., priority 2009, published 2012)

How the values were obtained:
[1] = target: T1, V600E full-length B-Raf (Homo sapiens, UniProt P15056, V600E); assay: B-Raf IC50 assay: incorporation of radio labeled phosphate from [γ-33P]ATP into FSBA-modified wild-type MEK; assay type: biochemical
T1 construct: made in house; host or cells: Sf9 insect cells (baculovirus)
Description: Determining the activity of Raf in the sample is possible by a number of direct and indirect detection methods (US 2004/0082014). Activity of human recombinant B-Raf protein may be assessed in vitro by assay of the incorporation of radio labeled phosphate to recombinant MAP kinase (MEK), a known physiologic substrate of B-Raf, according to US 2004/0127496 and WO 03/022840. The activity/inhibition of V600E full-length B-Raf was estimated by measuring the incorporation of radio labeled phosphate from [γ-^33]ATP into FSBA-modified wild-type MEK (see Biological Example 1).
Activity of human recombinant B-Raf protein may be assessed in vitro by assay of the incorporation of radio labeled phosphate to recombinant MAP kinase (MEK), a known physiologic substrate of B-Raf, according to US 2004/0127496 and WO 03/022840. Catalytically active human recombinant B-Raf protein is obtained by purification from sf9 insect cells infected with a human B-Raf recombinant baculovirus expression vector.
The activity/inhibition of V600E full-length B-Raf was estimated by measuring the incorporation of radio labeled phosphate from [γ-^33]ATP into FSBA-modified wild-type MEK. The 30-μL, assay mixtures contained 25 mM Na Pipes, pH 7.2, 100 mM KCl, 10 mM MgCl2, 5 mM β-glycerophosphate, 100 μM Na Vanadate, 4 μM ATP, 500 nCi [γ-^33P]ATP, 1 μM FSBA-MEK and 20 nM V600E full-length B-Raf. Incubations were carried out at 22° C. in a Costar 3365 plate (Corning). Prior to the assay, the B-Raf and FSBA-MEK were preincubated together in assay buffer at 1.5× (20 μL of 30 nM and 1.5 μM, respectively) for 15 minutes, and the assay was initiated by the addition of 10 μL of […]. Following the 60-minute incubation, the assay mixtures were quenched by the addition of 100 μL of 25% TCA, the plate was mixed on a rotary shaker for 1 minute, and the product was captured on a Perkin-Elmer GF/B filter plate using a Tomtec Mach III Harvester. After sealing the bottom of the plate, 35 μL of Bio-Safe II (Research Products International) scintillation cocktail were added to each well and the plate was top-sealed and counted in a Topcount NXT (Packard).

[2] = tested on: LOX xenografts; assay: Tumor Growth Inhibition (LOX) in nude mice with subcutaneous LOX xenografts; assay type: in vivo; conditions: female nude mice, subcutaneous LOX xenograft, 30 mg/kg PO on days 1, 2, 3 and 4
Experimental: Female nude mice were implanted subcutaneously on the right flank with approximately 3.5×10^6 LOX cells in 100 μL PBS. Five to seven days later, tumors were measured and mice were randomized into groups of six with average tumor volume in each group of approximately 200 mm^3. Examples 30 and 42 were dissolved in 80% PEG400/20% ethanol before dosing, and administered PO at a volume of 5 mL/kg. Dosing was vehicle alone on days 1, 2, 3 and 4; and Examples 30 and 42 at 30 mg/kg on days 1, 2, 3 and 4 Animal weights and tumor volumes were measured using electronic calipers on […]. Tumor volume was calculated using the formula: volume=(width^2×length)/2. Each Example was run in a separate study with its own vehicle comparison.

[3] = 4 μM ATP, 60-minute incubation, representative data of multiple tests

T1 sequence (P15056 whole entry V600E): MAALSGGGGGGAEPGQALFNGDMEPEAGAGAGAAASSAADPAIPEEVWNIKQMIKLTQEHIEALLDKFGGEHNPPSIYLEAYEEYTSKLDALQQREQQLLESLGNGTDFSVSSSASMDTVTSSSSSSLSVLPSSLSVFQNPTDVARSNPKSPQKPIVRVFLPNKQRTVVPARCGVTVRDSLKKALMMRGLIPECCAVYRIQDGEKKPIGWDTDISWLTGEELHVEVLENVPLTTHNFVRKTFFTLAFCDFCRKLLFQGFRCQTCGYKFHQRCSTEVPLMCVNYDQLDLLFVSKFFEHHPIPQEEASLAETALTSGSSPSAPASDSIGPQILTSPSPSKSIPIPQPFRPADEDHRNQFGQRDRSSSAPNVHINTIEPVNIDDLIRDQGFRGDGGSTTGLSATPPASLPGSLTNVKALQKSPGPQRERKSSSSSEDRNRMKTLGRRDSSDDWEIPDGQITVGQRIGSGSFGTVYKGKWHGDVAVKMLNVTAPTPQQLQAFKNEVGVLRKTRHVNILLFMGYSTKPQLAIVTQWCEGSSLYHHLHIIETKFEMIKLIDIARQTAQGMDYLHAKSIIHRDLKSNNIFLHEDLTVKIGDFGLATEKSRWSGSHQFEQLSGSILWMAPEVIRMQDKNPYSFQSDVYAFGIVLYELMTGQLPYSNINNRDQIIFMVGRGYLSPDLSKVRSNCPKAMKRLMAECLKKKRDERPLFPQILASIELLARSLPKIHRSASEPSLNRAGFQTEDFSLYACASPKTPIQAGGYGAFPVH

Question: With COc1n[nH]c2ncc(NC(=O)c3c(Cl)ccc(OCc4ccc(Cl)cc4)c3F)cc12 [Example 30, 6-chloro-3-(4-chlorobenzyloxy)-2-fluoro-N-(3-methoxy-1H-pyrazolo[3,4-b]pyridin-5-yl)benzamide] as the molecule, how does the IC50 [1, 3] read?
Answer: Its IC50 is 0.74 nM.

Question: What about the IC50 ([1]; bound stated) of the same molecule?
Answer: Its IC50 is < 100 nM.

Question: What about the “Tumor Volume (mm^3) Day 1” value [2] of the same molecule?
Answer: Its value is 221.68 mm^3.

Question: What about the “Tumor Volume (mm^3) Day 3” value [2] of the same molecule?
Answer: The value was 204.49 mm^3.

Question: What about the “Tumor Volume (mm^3) Day 5” value [2] of the same molecule?
Answer: Its value is 168.94 mm^3.

Question: For COc1n[nH]c2ncc(NC(=O)c3c(Cl)ccc(OCc4ccc(C(F)(F)F)cn4)c3F)cc12 [Example 42, 6-chloro-2-fluoro-N-(3-methoxy-1H-pyrazolo[3,4-b]pyridin-5-yl)-3-((5-(trifluoromethyl)pyridin-2-yl)methoxy)benzamide], which IC50 [1, 3] is on record?
Answer: Its IC50 is 1.76 nM.

Question: And the IC50 ([1]; bound stated)?
Answer: Its IC50 is < 100 nM.

Question: What about the “Tumor Volume (mm^3) Day 1” value [2] of the same molecule?
Answer: Its value is 191.22 mm^3.

Question: And the “Tumor Volume (mm^3) Day 3” value [2]?
Answer: Its value is 214.61 mm^3.

Question: And the “Tumor Volume (mm^3) Day 5” value [2]?
Answer: The value was 161.55 mm^3.

Question: How did the IC50 [1, 3] turn out when COc1n[nH]c2ncc(NC(=O)c3c(Cl)ccc(OC(C)c4ccccc4)c3F)cc12 (centres unmarked) [Example 67, 6-chloro-2-fluoro-N-(3-methoxy-1H-pyrazolo[3,4-b]pyridin-5-yl)-3-(1-phenylethoxy)benzamide] was run?
Answer: Its IC50 is 61 nM.

Question: And the IC50 ([1]; bound stated)?
Answer: The IC50 was < 100 nM.

Question: For COc1n[nH]c2ncc(NC(=O)c3c(Cl)ccc(OCc4ccn(C)n4)c3F)cc12 [Example 58, 6-chloro-2-fluoro-N-(3-methoxy-1H-pyrazolo[3,4-b]pyridin-5-yl)-3-((1-methyl-1H-pyrazolo-3-yl)methoxy)benzamide], which IC50 [1, 3] is on record?
Answer: Its IC50 is 37.1 nM.

Question: And the IC50 ([1]; bound stated)?
Answer: Its IC50 is < 100 nM.

Question: What does the source list for COc1n[nH]c2ncc(NC(=O)c3cccc(OCc4ccccc4)c3Cl)cc12 [Example 21, 3-(benzyloxy)-2-chloro-N-(3-methoxy-1H-pyrazolo[3,4-b]pyridin-5-yl)benzamide]?
Answer: IC50 [1, 3]: 72.4 nM; IC50 ([1]; bound stated): < 100 nM

Question: What does the source list for COc1n[nH]c2ncc(NC(=O)c3c(Cl)ccc(OCc4ccc(C)cc4)c3F)cc12 [Example 31, 6-chloro-2-fluoro-N-(3-methoxy-1H-pyrazolo[3,4-b]pyridin-5-yl)-3-(4-methyl-benzyloxy)benzamide]?
Answer: IC50 [1, 3]: 0.56 nM; IC50 ([1]; bound stated): < 100 nM

Question: With O=C(Nc1cnc2[nH]nc(OCCO)c2c1)c1c(Cl)ccc(OCc2ccccc2)c1F [Example 15, 3-(benzyloxy)-6-chloro-2-fluoro-N-(3-(2-hydroxyethoxy)-1H-pyrazolo[3,4-b]pyridine-5-yl)benzamide] as the molecule, how does the IC50 [1, 3] read?
Answer: The IC50 was 2.63 nM.

Question: And the IC50 ([1]; bound stated)?
Answer: Its IC50 is < 100 nM.

Question: What does the source list for COc1n[nH]c2ncc(NC(=O)c3c(Cl)ccc(OCc4ccc(C5CC5)cc4)c3F)cc12 [Example 77, 6-chloro-3-(4-cyclo-propylbenzyloxy)-2-fluoro-N-(3-methoxy-1H-pyrazolo[3,4-b]pyridin-5-yl)benzamide]?
Answer: IC50 [1, 3]: 0.56 nM; IC50 ([1]; bound stated): < 100 nM

Question: Which IC50 [1, 3] does the source give for COc1n[nH]c2ncc(NC(=O)c3c(Cl)ccc(OCc4cccnc4)c3F)cc12 [Example 36, 6-chloro-2-fluoro-N-(3-methoxy-1H-pyrazolo[3,4-b]pyridin-5-yl)-3-(pyridin-3-ylmethoxy)benzamide] here?
Answer: Its IC50 is 37.5 nM.

Question: And the IC50 ([1]; bound stated)?
Answer: Its IC50 is < 100 nM.

Question: Which IC50 [1, 3] does the source give for COc1n[nH]c2ncc(NC(=O)c3cc(OCc4ccccn4)ccc3Cl)cc12 [Example 24, 2-chloro-N-(3-methoxy-1H-pyrazolo[3,4-b]pyridin-5-yl)-5-(pyridin-2-ylmethoxy)benzamide] here?
Answer: Its IC50 is 64.9 nM.

Question: What about the IC50 ([1]; bound stated) of the same molecule?
Answer: The IC50 was < 100 nM.

Question: How did the IC50 [1, 3] turn out when COc1n[nH]c2ncc(NC(=O)c3c(Cl)ccc(OCc4ccccc4)c3Cl)cc12 [Example 25, 3-(benzyloxy)-2,6-dichloro-N-(3-methoxy-1H-pyrazolo[3,4-b]pyridin-5-yl)benzamide] was run?
Answer: The IC50 was 12.3 nM.

Question: What about the IC50 ([1]; bound stated) of the same molecule?
Answer: Its IC50 is < 100 nM.

Question: Which results are given for COc1n[nH]c2ncc(NC(=O)c3c(Cl)ccc(OCc4ccc(CN5CCOCC5)cc4)c3F)cc12 [Example 75, 6-chloro-2-fluoro-N-(3-methoxy-1H-pyrazolo[3,4-b]pyridin-5-yl)-3-(4-(morpholinomethyl)benzyloxy)benzamide]?
Answer: IC50 [1, 3]: 139 nM; IC50 ([1]; bound stated): < 500 nM

Question: CSc1n[nH]c2ncc(NC(=O)c3c(Cl)ccc(OCc4ccccc4)c3F)cc12 [Example 12, 3-(benzyloxy)-6-chloro-2-fluoro-N-(3-(methylthio)-1H-pyrazolo[3,4-b]pyridin-5-yl)benzamide] was tested. Which IC50 [1, 3] did it give?
Answer: The IC50 was 1.85 nM.

Question: And the IC50 ([1]; bound stated)?
Answer: Its IC50 is < 100 nM.

Question: Which results are given for COc1n[nH]c2ncc(NC(=O)c3c(Cl)ccc(OCc4ccccc4F)c3F)cc12 [Example 3, 6-chloro-2-fluoro-3-(2-fluorobenzyloxy)-N-(3-methoxy-1H-pyrazolo[3,4-b]pyridin-5-yl)benzamide]?
Answer: IC50 [1, 3]: 0.44 nM; IC50 ([1]; bound stated): < 100 nM

Question: O=C(Nc1cnc2[nH]nc(C3CC3)c2c1)c1c(Cl)ccc(OCc2ccccc2)c1F [Example 35, 3-(benzyloxy)-6-chloro-N-(3-cyclopropyl-1H-pyrazolo[3,4-b]pyridin-5-yl)-2-fluorobenzamide] was tested. Which IC50 [1, 3] did it give?
Answer: Its IC50 is 2.1 nM.

Question: And the IC50 ([1]; bound stated)?
Answer: Its IC50 is < 100 nM.

Question: With COc1n[nH]c2ncc(NC(=O)c3c(Cl)ccc(OCc4ccc(C(F)(F)F)nc4)c3F)cc12 [Example 43, 6-chloro-2-fluoro-N-(3-methoxy-1H-pyrazolo[3,4-b]pyridin-5-yl)-3-((6-(trifluoromethyl)pyridin-3-yl)methoxy)benzamide] as the molecule, how does the IC50 [1, 3] read?
Answer: The IC50 was 2.63 nM.

Question: And the IC50 ([1]; bound stated)?
Answer: Its IC50 is < 100 nM.

Question: Which results are given for COc1ccc(COc2ccc(Cl)c(C(=O)Nc3cnc4[nH]nc(OC)c4c3)c2F)cc1 [Example 56, 6-chloro-2-fluoro-N-(3-methoxy-1H-pyrazolo[3,4-b]pyridin-5-yl)-3-(4-methoxy-benzyloxy)benzamide]?
Answer: IC50 [1, 3]: 1.31 nM; IC50 ([1]; bound stated): < 100 nM

Question: With COc1n[nH]c2ncc(NC(=O)c3c(Cl)ccc(OCc4csc(C)n4)c3F)cc12 [Example 59, 6-chloro-2-fluoro-N-(3-methoxy-1H-pyrazolo[3,4-b]pyridin-5-yl)-3-((2-methylthiazol-4-yl)methoxy)benzamide] as the molecule, how does the IC50 [1, 3] read?
Answer: Its IC50 is 10.6 nM.

Question: What about the IC50 ([1]; bound stated) of the same molecule?
Answer: The IC50 was < 100 nM.

Question: With COc1n[nH]c2ncc(NC(=O)c3cc(OCc4ccccc4)ccc3F)cc12 [Example 2, 5-(benzyloxy)-2-fluoro-N-(3-methoxy-1H-pyrazolo[3,4-b]pyridin-5-yl)benzamide] as the molecule, how does the IC50 [1, 3] read?
Answer: Its IC50 is 55.8 nM.

Question: What about the IC50 ([1]; bound stated) of the same molecule?
Answer: Its IC50 is < 100 nM.
